ChEMBL document CHEMBL1268897, “Discovery and optimization of adamantyl carbamate inhibitors of 11β-HSD1” (Bioorg Med Chem Lett, 2010)
pEC50, pIC50: −log10 of the molar value.

Experiments:
[1] = molecular target: Cytochrome P450 2D6 (Homo sapiens, UniProt P10635); test: Inhibition of CYP2D6; assay type: ADME
[2] = in vitro; conditions: rat, liver microsomes
[3] = molecular target: Cytochrome P450 2C9 (Homo sapiens, UniProt P11712); test: Inhibition of CYP2C9; assay type: ADME
[4] = molecular target: Cytochrome P450 3A4 (Homo sapiens, UniProt P08684); test: Inhibition of CYP3A4; assay type: ADME
Sequence of Cytochrome P450 3A4 (P08684 whole entry): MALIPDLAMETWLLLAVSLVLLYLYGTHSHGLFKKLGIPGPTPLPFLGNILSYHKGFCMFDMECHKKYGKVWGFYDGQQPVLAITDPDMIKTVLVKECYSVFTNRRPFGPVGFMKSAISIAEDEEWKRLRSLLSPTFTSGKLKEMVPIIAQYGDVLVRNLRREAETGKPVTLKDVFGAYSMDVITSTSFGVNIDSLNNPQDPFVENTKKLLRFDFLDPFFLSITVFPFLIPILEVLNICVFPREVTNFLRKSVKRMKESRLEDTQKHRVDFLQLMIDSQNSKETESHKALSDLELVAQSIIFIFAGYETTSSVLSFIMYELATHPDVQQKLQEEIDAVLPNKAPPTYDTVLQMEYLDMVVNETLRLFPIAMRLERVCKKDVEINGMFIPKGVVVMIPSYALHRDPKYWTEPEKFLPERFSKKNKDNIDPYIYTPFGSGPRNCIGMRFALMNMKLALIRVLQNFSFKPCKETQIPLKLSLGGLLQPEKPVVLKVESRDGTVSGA

[5] = molecular target: T1, 11-beta-hydroxysteroid dehydrogenase 1 (Homo sapiens, UniProt P28845); test: Inhibition of recombinant 11betaHSD1 expressed in CHO cells assessed as [3H]-cortisone to [3H]-cortisol by microscintillation plate reader; assay type: cell-based
T1 sequence (P28845 whole entry): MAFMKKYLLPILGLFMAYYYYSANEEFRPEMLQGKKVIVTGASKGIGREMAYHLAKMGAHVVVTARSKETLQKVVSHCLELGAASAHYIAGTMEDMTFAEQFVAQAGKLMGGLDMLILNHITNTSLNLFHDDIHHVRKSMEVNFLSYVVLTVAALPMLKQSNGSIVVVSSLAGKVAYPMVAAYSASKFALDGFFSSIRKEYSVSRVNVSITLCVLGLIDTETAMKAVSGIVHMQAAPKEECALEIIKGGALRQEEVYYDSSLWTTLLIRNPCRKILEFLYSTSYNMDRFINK

[6] = molecular target: T1, 11-beta-hydroxysteroid dehydrogenase 1; test: Inhibition of 11betaHSD1 in human platelet assessed as [3H]-cortisone to [3H]-cortisol by microscintillation plate reader
[7] = Clearance in rat at 1 umol/kg, iv and 5 umol/kg, po; conditions: in vivo
[8] = molecular target: T2, 3 beta-hydroxysteroid dehydrogenase/Delta 5-->4-isomerase type 2 (Homo sapiens, UniProt P26439); test: Inhibition of 3betaHSD2
T2 sequence (P26439 whole entry): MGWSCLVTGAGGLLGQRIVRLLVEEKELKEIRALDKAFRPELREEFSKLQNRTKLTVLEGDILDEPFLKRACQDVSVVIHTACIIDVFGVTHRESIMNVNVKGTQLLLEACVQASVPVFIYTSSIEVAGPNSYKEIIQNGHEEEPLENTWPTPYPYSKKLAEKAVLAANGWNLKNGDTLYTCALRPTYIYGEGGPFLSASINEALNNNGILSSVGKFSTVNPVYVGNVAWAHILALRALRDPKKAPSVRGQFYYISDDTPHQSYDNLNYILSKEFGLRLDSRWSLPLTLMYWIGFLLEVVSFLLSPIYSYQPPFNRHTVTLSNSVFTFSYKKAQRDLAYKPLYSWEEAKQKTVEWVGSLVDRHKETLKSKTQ

[9] = molecular target: T1, 11-beta-hydroxysteroid dehydrogenase 1; test: Inhibition of recombinant 11betaHSD1 expressed in CHO cells assessed as [3H]-cortisone to [3H]-cortisol by microscintillation plate reader in presence of plasma; assay type: cell-based
[10] = AUC in rat at 1 umol/kg, iv and 5 umol/kg, po; conditions: plasma
[11] = test system: Rattus norvegicus; test: Volume of distribution in rat at 1 umol/kg, iv and 5 umol/kg, po; conditions: in vivo
[12] = Oral bioavailability in rat at 1 umol/kg, iv and 5 umol/kg, po; conditions: in vivo
[13] = in vitro; conditions: rat, hepatocytes
Description: Metabolic stability in rat hepatocytes assessed as hepatic clearance

[14] = molecular target: T3, 11-beta-hydroxysteroid dehydrogenase type 2 (Homo sapiens, UniProt P80365); test: Inhibition of 11betaHSD2
T3 sequence (P80365 whole entry): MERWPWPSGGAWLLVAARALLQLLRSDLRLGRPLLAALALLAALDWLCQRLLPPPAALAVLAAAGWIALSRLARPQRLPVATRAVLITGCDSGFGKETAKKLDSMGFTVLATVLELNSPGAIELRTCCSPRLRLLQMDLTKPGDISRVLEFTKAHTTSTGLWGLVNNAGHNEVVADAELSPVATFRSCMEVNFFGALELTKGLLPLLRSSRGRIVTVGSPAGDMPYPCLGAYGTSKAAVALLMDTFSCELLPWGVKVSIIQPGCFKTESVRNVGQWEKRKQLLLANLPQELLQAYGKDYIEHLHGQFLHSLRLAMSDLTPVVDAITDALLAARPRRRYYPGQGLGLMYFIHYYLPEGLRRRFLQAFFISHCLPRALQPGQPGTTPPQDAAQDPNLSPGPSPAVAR

[15] = molecular target: 17-beta-hydroxysteroid dehydrogenase type 1 (Homo sapiens) (UniProt P14061); test: Inhibition of 17betaHSD1
Sequence of 17-beta-hydroxysteroid dehydrogenase type 1 (Homo sapiens) (P14061 whole entry, looked up): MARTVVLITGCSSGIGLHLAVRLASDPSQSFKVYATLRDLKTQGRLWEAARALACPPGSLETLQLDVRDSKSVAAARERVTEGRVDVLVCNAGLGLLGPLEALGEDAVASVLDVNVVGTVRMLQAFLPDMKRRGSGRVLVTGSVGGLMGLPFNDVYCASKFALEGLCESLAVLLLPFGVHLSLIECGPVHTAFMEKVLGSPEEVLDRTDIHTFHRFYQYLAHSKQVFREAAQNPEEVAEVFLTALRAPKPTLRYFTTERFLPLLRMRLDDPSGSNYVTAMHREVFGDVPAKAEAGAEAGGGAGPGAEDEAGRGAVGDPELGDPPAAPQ

[16] = Mean residence time in rat at 1 umol/kg, iv and 5 umol/kg, po; conditions: in vivo
[17] = molecular target: T4, Glucocorticoid receptor (Homo sapiens, UniProt P04150); test: Activity against GR
T4 sequence (P04150 whole entry): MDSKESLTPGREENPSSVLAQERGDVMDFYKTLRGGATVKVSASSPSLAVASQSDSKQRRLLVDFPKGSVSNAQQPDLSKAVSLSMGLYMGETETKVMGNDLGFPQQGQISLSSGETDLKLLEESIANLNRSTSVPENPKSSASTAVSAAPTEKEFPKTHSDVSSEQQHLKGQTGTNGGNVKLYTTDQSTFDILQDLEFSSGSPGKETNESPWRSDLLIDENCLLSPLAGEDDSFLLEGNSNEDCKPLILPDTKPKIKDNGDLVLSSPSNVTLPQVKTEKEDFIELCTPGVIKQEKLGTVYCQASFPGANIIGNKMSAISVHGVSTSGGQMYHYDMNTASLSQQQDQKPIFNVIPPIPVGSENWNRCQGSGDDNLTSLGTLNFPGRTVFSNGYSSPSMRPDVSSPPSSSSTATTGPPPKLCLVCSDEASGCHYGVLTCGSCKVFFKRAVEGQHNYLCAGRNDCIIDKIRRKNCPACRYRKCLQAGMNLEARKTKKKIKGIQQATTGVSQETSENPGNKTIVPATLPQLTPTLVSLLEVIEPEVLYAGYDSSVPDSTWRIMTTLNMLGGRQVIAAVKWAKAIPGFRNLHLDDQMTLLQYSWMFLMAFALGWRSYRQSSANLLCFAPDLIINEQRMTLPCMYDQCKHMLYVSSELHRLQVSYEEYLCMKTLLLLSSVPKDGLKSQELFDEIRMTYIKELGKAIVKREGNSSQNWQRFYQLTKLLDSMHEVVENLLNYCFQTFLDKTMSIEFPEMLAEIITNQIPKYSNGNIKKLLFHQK

[18] = molecular target: T5, Bile acid receptor (Homo sapiens, UniProt Q96RI1); test: Activity against FXR
T5 sequence (Q96RI1 whole entry): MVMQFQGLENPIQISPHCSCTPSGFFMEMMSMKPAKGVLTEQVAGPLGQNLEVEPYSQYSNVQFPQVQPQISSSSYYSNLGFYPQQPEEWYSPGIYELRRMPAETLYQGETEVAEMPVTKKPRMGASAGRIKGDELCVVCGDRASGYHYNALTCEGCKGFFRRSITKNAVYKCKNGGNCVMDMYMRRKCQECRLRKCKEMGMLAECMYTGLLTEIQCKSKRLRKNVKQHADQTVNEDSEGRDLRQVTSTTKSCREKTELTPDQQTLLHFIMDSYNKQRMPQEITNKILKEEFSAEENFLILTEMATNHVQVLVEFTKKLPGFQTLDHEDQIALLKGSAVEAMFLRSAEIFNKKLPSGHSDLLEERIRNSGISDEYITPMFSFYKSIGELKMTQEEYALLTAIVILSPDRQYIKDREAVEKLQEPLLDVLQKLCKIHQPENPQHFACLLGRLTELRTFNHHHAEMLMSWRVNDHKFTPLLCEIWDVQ

Sequence of Cytochrome P450 2D6 (P10635 whole entry): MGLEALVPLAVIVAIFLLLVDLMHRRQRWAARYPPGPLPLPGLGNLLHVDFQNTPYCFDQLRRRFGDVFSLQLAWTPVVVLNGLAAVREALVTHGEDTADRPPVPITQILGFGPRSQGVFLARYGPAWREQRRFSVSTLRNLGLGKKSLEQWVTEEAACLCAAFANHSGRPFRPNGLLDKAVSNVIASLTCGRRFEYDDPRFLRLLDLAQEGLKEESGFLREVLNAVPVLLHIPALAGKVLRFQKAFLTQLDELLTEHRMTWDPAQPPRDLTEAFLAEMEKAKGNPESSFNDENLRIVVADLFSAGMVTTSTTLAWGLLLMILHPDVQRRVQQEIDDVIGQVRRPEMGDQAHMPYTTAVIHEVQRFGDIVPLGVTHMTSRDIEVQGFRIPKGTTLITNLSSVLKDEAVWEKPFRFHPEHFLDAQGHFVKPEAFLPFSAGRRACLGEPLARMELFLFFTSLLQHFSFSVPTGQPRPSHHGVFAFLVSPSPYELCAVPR
Sequence of Cytochrome P450 2C9 (P11712 whole entry): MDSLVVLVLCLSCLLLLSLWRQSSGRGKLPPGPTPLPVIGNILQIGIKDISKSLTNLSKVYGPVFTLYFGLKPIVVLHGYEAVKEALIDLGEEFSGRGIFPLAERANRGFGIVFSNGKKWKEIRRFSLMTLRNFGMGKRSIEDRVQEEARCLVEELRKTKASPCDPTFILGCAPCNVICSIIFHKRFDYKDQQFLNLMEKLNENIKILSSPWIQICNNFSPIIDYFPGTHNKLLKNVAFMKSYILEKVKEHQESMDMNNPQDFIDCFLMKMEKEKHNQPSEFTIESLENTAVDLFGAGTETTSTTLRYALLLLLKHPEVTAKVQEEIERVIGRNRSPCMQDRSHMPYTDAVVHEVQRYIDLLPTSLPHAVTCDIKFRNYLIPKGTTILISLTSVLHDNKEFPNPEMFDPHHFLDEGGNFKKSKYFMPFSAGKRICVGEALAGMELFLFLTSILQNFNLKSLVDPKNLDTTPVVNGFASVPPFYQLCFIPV

Row | Compound | pIC50 [1] | half-life [2] [min] | pIC50 [3] | pIC50 [4] | pIC50 [5] | pIC50 [6] | also measured
1 | OC1C2CC3CC(C2)CC1C3 (centres undefined) [ADAMANTAN-2-OL] | < 4.52 | 2 | 4.66 | < 4.52 |  |  | 
2 | Cc1cc(N[C@@H]2CCN(C(=O)O[C@H]3C4CC5CC3C[C@](C(N)=O)(C5)C4)C2)nc(C)n1 |  |  |  |  | 7.68 | < 7.00 | 
3 | NC(=O)[C@]12CC3CC(C1)[C@@H](OC(=O)N1CC[C@H](Nc4ccc(C(F)(F)F)cn4)C1)C(C3)C2 | 4.94 | > 60 | 5.62 | 4.99 |  |  | 
4 | N#Cc1cccnc1N[C@@H]1CCN(C(=O)O[C@H]2C3CC4CC2C[C@](C(N)=O)(C4)C3)C1 | < 4.52 | > 60 | < 4.52 | 4.77 | 9.06 | 9.40 | clearance [7]: 42 mL/min/kg; pIC50 [8]: < 5.00; pIC50 [9]: 8.62; AUC [10]: 0.398 µM·h; Vd [11]: 0.7 L/kg; bioavailability [12]: 42%; CLhep predicted [13]: 41 mL/min/kg; pIC50 [14]: 5.13; pIC50 [15]: < 5.00; MRT [16]: 18 min
5 | CC(C)(C)OC(=O)N[C@@H]1CCN(C(=O)OC2C3CC4CC(C3)CC2C4)C1 (some centres undefined) | < 4.52 | 2 | 4.94 | < 4.52 |  |  | 
6 | NC(=O)[C@]12CC3CC(C1)[C@@H](OC(=O)N1CC[C@@H](Nc4ccc(C(F)(F)F)cn4)C1)C(C3)C2 | 4.94 | 47 | 5.39 | 5.14 |  |  | 
7 | CC(C)(C)CC(=O)N[C@@H]1CCN(C(=O)OC2C3CC4CC(C3)CC2C4)C1 (some centres undefined) |  |  |  |  | 7.17 |  | 
8 | CC(C)(C)OC(=O)N[C@@H]1CCN(C(=O)O[C@H]2C3CC4CC2C[C@](C(C)(C)O)(C4)C3)C1 |  |  |  |  | 7.01 | < 7.00 | 
9 | NC(=O)[C@]12CC3CC(C1)[C@@H](OC(=O)N1CC[C@@H](Nc4nnc(C(F)(F)F)s4)C1)C(C3)C2 |  |  |  |  | 7.67 | < 7.00 | 
10 | N#Cc1cccnc1N[C@H]1CCN(C(=O)O[C@H]2C3CC4CC2C[C@](C(N)=O)(C4)C3)C1 | < 4.52 | 25 | < 4.52 | 4.73 | 8.59 | 8.12 | 
11 | CC(C)(C)OC(=O)N[C@H]1CCN(C(=O)O[C@H]2C3CC4CC2C[C@](C(N)=O)(C4)C3)C1 |  |  |  |  | 8.36 | 7.75 | 
12 | N#Cc1ccc(N[C@@H]2CCN(C(=O)O[C@H]3C4CC5CC3C[C@](C(N)=O)(C5)C4)C2)nc1 | 4.60 | 46 | 4.64 | 4.85 | 8.82 | 8.57 | clearance [7]: 80 mL/min/kg; pIC50 [8]: < 5.00; pIC50 [9]: 8.49; AUC [10]: 0.209 µM·h; Vd [11]: 2.2 L/kg; bioavailability [12]: 27%; CLhep predicted [13]: 33 mL/min/kg; pIC50 [14]: 5.06; pIC50 [15]: < 5.00; MRT [16]: 30 min
13 | NC(=O)[C@]12CC3CC(C1)[C@@H](OC(=O)N1CC[C@@H](Nc4cccc(C(F)(F)F)n4)C1)C(C3)C2 | 5.23 | 7 | 5.62 | 5.32 |  |  | 
14 | O=C(OC1C2CC3CC(C2)CC1C3)N1CCCCC1 (centres undefined) |  | 2 |  |  |  |  | 
15 | CC(C)(C)OC(=O)N[C@@H]1CCN(C(=O)O[C@H]2C3CC4CC2C[C@](C(N)=O)(C4)C3)C1 | < 4.52 | 30 | < 4.52 | < 4.52 | 8.47 | 8.12 | pEC50 [17]: < 5.00; pEC50 [18]: < 5.00
16 | NC(=O)[C@]12CC3CC(C1)[C@H](OC(=O)N1CC[C@H](Nc4ncccc4C(F)(F)F)C1)C(C3)C2 | < 4.52 | 11 | 5.10 | 5.07 |  |  | 
17 | NC(=O)[C@]12CC3CC(C1)[C@@H](OC(=O)N1CC[C@@H](Nc4ncccc4C(F)(F)F)C1)C(C3)C2 |  | 30 | 5.03 | 5.48 |  |  | 
18 | N#Cc1ccc(N[C@H]2CCN(C(=O)O[C@H]3C4CC5CC3C[C@](C(N)=O)(C5)C4)C2)nc1 | 4.78 | 25 | 4.70 | 4.58 | 8.77 | 8.28 | 
